Assays:
[1] = molecular target: human vasopressin V1a receptor (Homo sapiens, UniProt P37288); assay: Vasopressin V1a receptor binding assay; conditions: selectivity quotient, human V1a versus human V1b
[2] = molecular target: T1, human vasopressin V1b receptor (Homo sapiens, UniProt P47901); assay: Vasopressin V1b receptor binding assay; conditions: read-out: Ki(h-V1b)*
T1 construct: expressed in transfected cells; host or cells: CHO-K1 (cell line hV1b_3H2_CHO)
T1 sequence (P47901 1-424): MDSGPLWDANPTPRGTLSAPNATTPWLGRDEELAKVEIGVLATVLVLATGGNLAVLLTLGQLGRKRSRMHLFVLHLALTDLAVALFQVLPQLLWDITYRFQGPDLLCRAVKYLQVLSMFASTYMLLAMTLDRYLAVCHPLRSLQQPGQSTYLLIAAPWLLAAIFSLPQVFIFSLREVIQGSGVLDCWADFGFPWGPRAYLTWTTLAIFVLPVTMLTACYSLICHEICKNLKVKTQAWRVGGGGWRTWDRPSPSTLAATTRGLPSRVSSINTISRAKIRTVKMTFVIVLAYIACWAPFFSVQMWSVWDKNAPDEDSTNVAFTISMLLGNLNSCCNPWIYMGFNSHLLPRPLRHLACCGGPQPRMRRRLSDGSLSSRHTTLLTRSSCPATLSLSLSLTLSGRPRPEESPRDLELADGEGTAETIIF
Procedure: 1. Vasopressin V1b Receptor Binding Assay:
The substance concentration was further diluted 1:5 in the assay mixture (2% DMSO in the mixture).
All determinations were carried out as triplicate determinations.

[3] = molecular target: T2, recombinant human oxytocin receptors (Homo sapiens, UniProt P30559); assay: Oxytocin receptor binding assay; conditions: selectivity quotient, human OT versus human V1b
T2 construct: expressed in transfected cells; host or cells: HEK-293 (transient)
T2 sequence (P30559 1-389): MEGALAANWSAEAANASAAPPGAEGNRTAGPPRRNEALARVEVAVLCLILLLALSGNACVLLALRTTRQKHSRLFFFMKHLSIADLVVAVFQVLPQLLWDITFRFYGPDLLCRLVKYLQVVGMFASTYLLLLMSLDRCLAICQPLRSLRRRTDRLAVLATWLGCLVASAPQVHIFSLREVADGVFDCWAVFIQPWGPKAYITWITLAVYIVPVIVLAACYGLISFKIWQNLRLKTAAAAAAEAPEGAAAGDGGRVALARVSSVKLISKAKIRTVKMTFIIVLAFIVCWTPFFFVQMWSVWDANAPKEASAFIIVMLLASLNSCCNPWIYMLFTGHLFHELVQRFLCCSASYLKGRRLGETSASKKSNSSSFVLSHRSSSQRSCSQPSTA
Procedure: 4. Oxytocin Receptor Binding Assay
Confluent HEK-293 cells with transiently expressing recombinant human oxytocin receptors were centrifuged at 750×g at room temperature for 5 minutes. The residue was taken up in ice-cold lysis buffer (50 mM Tris-HCl, 10% glycerol, pH 7.4 and Roche complete protease inhibitor) and subjected to an osmotic shock at 4° C. for 20 minutes. The lyzed cells were then centrifuged at 750×g at 4° C. for 20 minutes, the residue was taken up in incubation buffer, and aliquots of 10^7 cells/ml were prepared. The aliquots were frozen at −80° C. until used.
On the day of the experiment, the cells were thawed, diluted with incubation buffer and homogenized using a Multipette Combitip (Eppendorf, Hamburg). […] The nonspecific binding was determined with 10^−6 M oxytocin (Bachem AG, H2510). Triplicate determinations were set up. Bound and free radioligand were separated by filtration under vacuum with Whatman GF/B glass fiber filters with the aid of a Skatron cell harvester 7000. The bound radioactivity was determined by liquid scintillation measurement in a Tricarb Beta counter, model 2000 or 2200CA (Packard).

[4] = Determination of the microsomal half-life / microsomal clearance (human liver microsomes); type: in vitro ADME; conditions: pH 7.4, 0.5 μM test substance
Procedure: 5. Determination of the Microsomal Half-Life:
The metabolic stability of the compounds of the invention was determined in the following assay.
The test substances were incubated in a concentration of 0.5 μM as follows:
0.5 μM test substance are preincubated together with liver microsomes from different species (from rat, human or other species) (0.25 mg of microsomal protein/ml) in 0.05 M potassium phosphate buffer of pH 7.4 in microtiter plates at 37° C. for 5 min. The reaction is started by adding NADPH (1 mg/mL). After 0, 5, 10, 15, 20 and 30 min, 50 μl aliquots are removed, and the reaction is immediately stopped and cooled with the same volume of acetonitrile. The samples are frozen until analyzed. The remaining concentration of undegraded test substance is determined by MSMS. The half-life (T½) is determined from the gradient of the signal of test substance/unit time plot, it being possible to calculate the half-life of the test substance, assuming first order kinetics, from the decrease in the concentration of the compound with time. The microsomal clearance (mCl) is calculated from mCl=In2/T½/(content of microsomal protein in mg/ml)×1000 […] (modified from references: Di, The Society for Biomoleculur Screening, 2003, 453-462; Obach, DMD, 1999 vol. 27. N 11, 1350-1359).

Sequence of human vasopressin V1a receptor (P37288 whole entry): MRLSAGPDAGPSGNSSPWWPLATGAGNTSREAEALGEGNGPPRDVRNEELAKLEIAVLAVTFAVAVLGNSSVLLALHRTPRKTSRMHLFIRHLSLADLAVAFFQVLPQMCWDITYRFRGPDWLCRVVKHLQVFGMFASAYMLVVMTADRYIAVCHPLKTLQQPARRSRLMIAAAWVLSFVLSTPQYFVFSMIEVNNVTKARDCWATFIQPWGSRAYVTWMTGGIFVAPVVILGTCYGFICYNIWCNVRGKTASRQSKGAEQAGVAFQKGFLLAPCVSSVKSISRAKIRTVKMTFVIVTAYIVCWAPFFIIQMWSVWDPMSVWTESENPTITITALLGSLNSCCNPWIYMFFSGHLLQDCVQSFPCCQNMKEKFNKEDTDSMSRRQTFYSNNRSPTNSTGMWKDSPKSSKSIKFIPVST

| Ki(h-V1a)/Ki(h-V1b)* [1] | Ki [2] [nM] | Ki(h-OT)/Ki(h-V1b)* [3] | microsomal CLint at 0.5 μM [4] [µL/min/mg] | Compound |
| --- | --- | --- | --- | --- |
| +++ (>75) | < 10 | +++ (>45) | < 50 | CCOc1ncccc1C1(OC(=O)N2CCN(C3CCN(C)CC3)CC2)C(=O)N(S(=O)(=O)c2ccccc2)c2ccc(C#N)cc21 (single isomer, unassigned; (-)) [Example 4B, (−)-5-Cyano-3-(2-ethoxypyridin-3-yl)-2-oxo-1-(phenylsulfonyl)-2,3-dihydro-1H-indol-3-yl 4-(1-methylpiperidin-4-yl)piperazine-1-carboxylate] |
| +++ (>75) | < 10 | +++ (>45) | 75 to 200 | CCOc1ncccc1C1(OC(=O)N2CCN(C3CCN(C)CC3)CC2)C(=O)N(S(=O)(=O)c2ccccc2OC)c2ccc(C#N)cc21 (single isomer, unassigned; (-)) [Example 2B, (−)-5-Cyano-3-(2-ethoxypyridin-3-yl)-1-[(2-methoxyphenyl)sulfonyl]-2-oxo-2,3-dihydro-1H-indol-3-yl-4-(1-methylpiperidin-4-yl)piperazine-1-carboxylate] |

— US9422264B2, “Carbamate-substituted oxindole derivatives and use thereof for the treatment of vasopressin-dependent diseases” (AbbVie Deutschland GmbH & Co. KG, priority 2007, dated 2016)
